Test results taken from US20250213512A1, “TRANSDERMAL ANALGESIC FORMULATION” (MEAT & LIVESTOCK AUSTRALIA LTD, priority 2017, published 2025).
Values joined by “and” are separate entries in the source; they are usually repeats but may differ in a detail not shown here. Equal entries are not always repeated. One block for each compound: values may come before it.

Key:
[1] = treated vs untreated cattle
Protocol: Blood samples were analysed for cortisol and biomarkers once the study was completed.
A preliminary analysis of the proteins identified was undertaken using Principal Component Analysis (PCA) within the MarkerView software package (FIG. 21). This analysis looked at a comparison of groups for all time points (FIG. 21a), a comparison of dehorning vs. sham (FIG. 21b) and a comparison of treatment vs. placebo (FIG. 21c).

[2] = Clinical study (disbudding): behaviour ethogram, mixed effect Poisson / negative binomial models; settings: dehorned calves
Protocol: Calf behaviour was monitored before and after dehoming in suitable time periods. The day before dehoming, the behaviour of all 36 calves were monitored for two hours to record the baseline variation, which was taken as 0 hour observation. Next day after dehoming, behaviour was recorded at 2-4 hour, 4-8 hour, 8-12 hour, 24 hour and 48 hours. There were 12 behaviour parameters recorded, as follows: Head shaking, Ear flicking, Tail wagging. Head rubbing, lying, ruminating, neck extending, grooming, walking, vocalising, feeding and drinking.
The method used to identify those variables was Confirmatory Factor Analysis (CFA) within Structural Equation Modelling Framework (SEM).
Separate models were used for each of the observed animal behavioural traits (FIG. 19). A mixed effect Poisson model with an animal fitted as random intercepts and time as random slope, and unstructured error term for the residuals. Behaviours trait at baseline (time 0) was centred and added to the fixed effect part of the model (essentially turning the model into a random slope model too). […] Overdispersed models (also those with excess zeros) were refitted using a negative binomial model.
Experimental time was fitted as a categorical variable to derive estimated at each time point, time 2 hr was used as the reference category. Treatment was also fitted as categorical variable, placebo as reference category. […]

[3] = Screening of NSAID and vehicle combinations: penetration through cattle skin in vitro (Table 13)
Protocol: Hair was removed using an electric clipper and the subcutaneous fat and musculature carefully trimmed away before the skin was cut into circular sections (approximately 2 cm diameter) using a metal wad punch, and placed in airtight ziplock bags, stored at −20° C. within 5 hr of slaughter.
The skin samples were defrosted immediately prior to use and mounted on Franz diffusion cells. […] A glass cover slip was applied to each donor chamber to prevent evaporation of the donor solution. Samples (200 μL) were collected at regular intervals from the receptor chambers via the sampling port and immediately replenished with equal volumes of fresh receptor solution. At the completion of each study, the diffusions cells were dismantled and the skin discs were rinsed and stored.

[4] = Solubility / precipitation of NSAIDs in the vehicles tested; settings: vehicles screened
[5] = Optimising the candidate formulations: excipient effects on ketoprofen movement through cattle skin in vitro
[6] = 10% Flunixin, vehicle KET65 (Cromollient-SCE-LQ-(MH), 100% Di-PPG2-Myreth-10-Adipate), sample time 6 hrs
[7] = 10% Flunixin, vehicle KET93: Isopronanol 50% IPN, 1-Ethyl-2-Pryrrolidone 45% EP, Menthol 50 ng/mL, Buffer/EVAP None, sample time 0.5 hrs
[8] = 10% Flunixin, vehicle KET93: Isopronanol 50% IPN, 1-Ethyl-2-Pryrrolidone 45% EP, Menthol 50 ng/mL, Buffer/EVAP None, sample time 2 hrs
[9] = 10% Flunixin, vehicle KET93: Isopronanol 50% IPN, 1-Ethyl-2-Pryrrolidone 45% EP, Menthol 50 ng/mL, Buffer/EVAP None, sample time 4 hrs
[10] = 10% Flunixin, vehicle KET93: Isopronanol 50% IPN, 1-Ethyl-2-Pryrrolidone 45% EP, Menthol 50 ng/mL, Buffer/EVAP None, sample time 6 hrs
[11] = 10% Flunixin, vehicle KET95: Isopronanol 50% IPN, 1-Ethyl-2-Pryrrolidone 45% EP, Menthol 50 ng/mL, Buffer/EVAP None, sample time 0.2 hrs
[12] = 10% Flunixin, vehicle KET95: Isopronanol 50% IPN, 1-Ethyl-2-Pryrrolidone 45% EP, Menthol 50 ng/mL, Buffer/EVAP None, sample time 0.5 hrs
[13] = 10% Flunixin, vehicle KET95: Isopronanol 50% IPN, 1-Ethyl-2-Pryrrolidone 45% EP, Menthol 50 ng/mL, Buffer/EVAP None, sample time 2 hrs
[14] = 10% Flunixin, vehicle KET95: Isopronanol 50% IPN, 1-Ethyl-2-Pryrrolidone 45% EP, Menthol 50 ng/mL, Buffer/EVAP None, sample time 4 hrs
[15] = 10% Flunixin, vehicle KET96: Isopronanol 50% IPN, Propylene glycol 45% PPG, Eucalyptus oil […] 1,8-cineole, Buffer/EVAP None, sample time not printed (sample KET1430, replicate 1)
[16] = Flunixin 10% in vehicle KET46: Ethanol 70% EthOH, Propylene glycol 30% PPG, terpene None, 0.1M citrate, sample time 6 hrs
[17] = Flunixin 10% in vehicle KET46: Ethanol 70% EthOH, Propylene glycol 30% PPG, terpene None, 0.1M citrate, sample time 8 hrs

SMILES: CC(C(=O)O)c1cccc(C(=O)c2ccccc2)c1 (stereo not shown) [ketoprofen]
effect on key biomarkers of pain and inflammation [1]: significantly affected key biomarkers of pain and inflammation | head shaking compared with the placebo group [2]: significantly different from the placebo group

Concentration ([3]; 10% Flunixin, vehicle KET65 (Cromollient-SCE-LQ-(MH), 100% Di-PPG2-Myreth-10-Adipate), sample time 0.5 hrs): 0 µg/mL | Concentration ([3]; 10% Flunixin, vehicle KET65 (Cromollient-SCE-LQ-(MH), 100% Di-PPG2-Myreth-10-Adipate), sample time 2 hrs): 0 µg/mL | analysis conc ([3]; 10% Flunixin, vehicle KET65 (Cromollient-SCE-LQ-(MH), 100% Di-PPG2-Myreth-10-Adipate), sample time 4 hrs): 0.006 and 0.005 | analysis conc [3, 6]: 0.006 and 0.007 and 0.005 | Concentration [3, 7]: 0.096 µg/mL | analysis conc [3, 7]: 0.032 | Concentration [3, 8]: 0.102 µg/mL | analysis conc [3, 8]: 0.034 | Concentration [3, 9]: 0.543 µg/mL | analysis conc [3, 9]: 0.181 | Concentration [3, 10]: 0.579 µg/mL | analysis conc [3, 10]: 0.193 | Concentration ([3]; 10% Flunixin, vehicle KET94: Isopronanol 50% IPN, Propylene glycol 45% PPG, Eucalyptus oil […] 1,8-cineole, Buffer/EVAP None, sample time 2 hrs): 0.135 µg/mL | Concentration ([3]; 10% Flunixin, vehicle KET94: Isopronanol 50% IPN, Propylene glycol 45% PPG, Eucalyptus oil […] 1,8-cineole, Buffer/EVAP None, sample time 2 hrs, listed as Flunixin): 0.123 µg/mL | Concentration [3, 11]: 0.114 µg/mL | analysis conc [3, 11]: 0.038 | Concentration [3, 12]: 0.159 µg/mL and 0.237 µg/mL | analysis conc [3, 12]: 0.053 and 0.079 | analysis conc [3, 13]: 0.055 and 0.082 and 0.044 | analysis conc [3, 14]: 0.062 and 0.095 and 0.049 | Concentration [3, 15]: 0.06 µg/mL | analysis conc [3, 15]: 0.02 | Concentration ([3]; Flunixin 10% in vehicle KET46: Ethanol 70% EthOH, Propylene glycol 30% PPG, terpene None, 0.1M citrate, sample time 2 hrs): 0 µg/mL | Concentration ([3]; Flunixin 10% in vehicle KET46: Ethanol 70% EthOH, Propylene glycol 30% PPG, terpene None, 0.1M citrate, sample time 4 hrs): 0 µg/mL | Concentration [3, 16]: 0.036 µg/mL | analysis conc [3, 16]: 0.012 | Concentration [3, 17]: 0.036 µg/mL | analysis conc [3, 17]: 0.012 | analysis conc ([3]; Flunixin 10% in vehicle KET47: Ethanol 70% EthOH, Propylene glycol 30% PPG, Menthol 50 mg/mL, 0.1M citrate, sample time 0.5 hrs): 0.009 | Concentration ([3]; Flunixin 50%, vehicle KET38: Ethanol 50% EthOH, no co-solvent, Menthol 50 mg/mL, sample time 0.5 hrs, replicates 1-3): 0 µg/mL | Concentration ([3]; Flunixin 50%, vehicle KET38: Ethanol 50% EthOH, no co-solvent, Menthol 50 mg/mL, sample time 2 hrs, replicates 1-3): 0 µg/mL | Concentration ([3]; Flunixin 50%, vehicle KET38: Ethanol 50% EthOH, no co-solvent, Menthol 50 mg/mL, sample time 4 hrs, replicates 1-3): 0 µg/mL | Concentration ([3]; Flunixin 50%, vehicle KET38: Ethanol 50% EthOH, no co-solvent, Menthol 50 mg/mL, sample time 6 hrs, replicates 1-3): 0 µg/mL | Concentration ([3]; Flunixin 50%, vehicle KET38: Ethanol 50% EthOH, no co-solvent, Menthol 50 mg/mL, sample time 8 hrs, replicates 1-3): 0 µg/mL
SMILES: Cc1c(Nc2ncccc2C(=O)O)cccc1C(F)(F)F [flunixin, flunixin meglumine]
Concentration [3, 6]: 0.018 µg/mL and 0.021 µg/mL and 0.015 µg/mL | Concentration [3, 13]: 0.165 µg/mL and 0.246 µg/mL and 0.132 µg/mL | Concentration [3, 14]: 0.186 µg/mL and 0.285 µg/mL and 0.147 µg/mL | solubility in vehicles [4]: most soluble in the majority of vehicles examined

SMILES: CC(C)O [isopropanol]
effect of excipient on ketoprofen/NSAID penetration through cattle skin [5]: did not perform as well as ethanol

SMILES: CCCCCCCCCCCCCC(=O)OC(C)C [IPM, isopropyl myristate]
effect of excipient on ketoprofen/NSAID penetration through cattle skin [5]: proving the more effective

SMILES: CCO [Ethanol, ethanol]
effect of excipient on ketoprofen/NSAID penetration through cattle skin [5]: significantly enhanced penetration compared to other alcohols
